According to article PMC9363195, “Preclinical Pharmacokinetics, Biodistribution, and Acute Toxicity Evaluation of Caerin 1.9 Peptide in Sprague Dawley Rats” (Evidence-based Complementary and Alternative Medicine : eCAM, 2022):
Values joined by “and” are separate entries in the source; they are usually repeats but may differ in a detail not shown here. Equal entries are not always repeated. Where two headings read alike, the source gives them in different places. Peptide text beside a SMILES is read from it.

Experiment: Pharmacokinetics of repeated subcutaneous injection of F3 (10.0 mg/kg daily, 14 days)
Type: in vivo, Sprague Dawley rats
Details: for accumulation in plasma: after 14 days of repeated s.c. injection at 10.0 mg/kg; for CL/F: read-out: Cl_F_obs (clearance rate) (converted)
Description: The first day of F3 administration was recorded as day 1. At least 0.5 ml blood samples were obtained alternatively from 3M/3F rats at pre- and post-F3 injection time periods (0, 0.5, 1, 2, 4, 6, 8, and 24 hr).
The concentration of F3 in rat plasma was determined by liquid chromatography-tandem mass spectrometry, using the method established by Kanglong Huacheng Co., Ltd. The analyte was assayed by liquid chromatography coupled with the tandem mass spectrometry (LC-MS/MS) method. The LC-MS/MS system consisted of a Shimadzu HPLC system (Kyoto, Japan) and an LCMS-8060 instrument (serial no. 011105500332 AE). The following were the LC conditions: column, HALO ES-C18 2.7 µ C18 160A (50 × 2.1 mm); gradient elution at 0.5 mL/min with 5% acetonitrile in water containing 0.1% formic acid or 95% acetonitrile in water containing 0.1% formic acid; and injection volume of 10 µL. A multiple reaction monitoring (MRM) method was selected for quantitative analysis. For analyte and internal standard, the optimum transitions were 519.50 > 129.15 (five charges) and 649.15 > 120.10 (four charges), 393.20 > 373.25, and 237.15 > 194.15, respectively. The instrumental parameters were set as follows: nebulizing gas flow was 3 L/min; heating gas flow was 10 L/min; interface temperature was 300°C; DL temperature was 250°C; and heat block temperature was 400°C.
PK parameters were estimated by a noncompartmental model with the calculation model of “Linear Trapezoidal Linear Interpolation” using WinNonlin (Phoenix TM, version 8.1). If the plasma F3 was detected, the following pharmacokinetic parameters were measured and calculated: Cmax (maximum blood concentration), Tmax (peak time), T1/2 (elimination half-life), AUC (area under plasma concentration-time curve), Vz_F_obs (apparent distribution volume), Cl_F_obs (clearance rate), and MRTInf_obs (mean residence time).

[1] = female SD rats, s.c. 10.0 mg/kg daily x14 d, 14th dose, plasma, LC-MS/MS
[2] = female, Sprague-Dawley, rat, plasma, sc, 10 mg/kg, female SD rats, s.c. 10.0 mg/kg daily x14 d, 1st dose, LC-MS/MS
[3] = female, Sprague-Dawley, rat, plasma, sc, 10 mg/kg, female SD rats, s.c. 10.0 mg/kg daily x14 d, 14th dose, LC-MS/MS
[4] = male, Sprague-Dawley, rat, plasma, sc, 10 mg/kg, male SD rats, s.c. 10.0 mg/kg daily x14 d, 1st dose, LC-MS/MS
[5] = male, Sprague-Dawley, rat, plasma, sc, 10 mg/kg, male SD rats, s.c. 10.0 mg/kg daily x14 d, 14th dose, LC-MS/MS

CC[C@H](C)[C@H](NC(=O)[C@H](CO)NC(=O)CNC(=O)[C@H](CC(C)C)NC(=O)[C@@H](NC(=O)CNC(=O)[C@H](Cc1ccccc1)NC(=O)[C@H](CC(C)C)NC(=O)CN)C(C)C)C(=O)N[C@@H](C)C(=O)N[C@@H](CCCCN)C(=O)N[C@@H](Cc1c[nH]cn1)C(=O)N[C@H](C(=O)N[C@@H](CC(C)C)C(=O)N1CCC[C@H]1C(=O)N[C@@H](Cc1c[nH]cn1)C(=O)N[C@H](C(=O)N[C@H](C(=O)N1CCC[C@H]1C(=O)N[C@H](C(=O)N[C@H](C(=O)N[C@@H](C)C(=O)N[C@@H](CCC(=O)O)C(=O)N[C@@H](CCCCN)C(=O)N[C@@H](CC(C)C)C(N)=O)[C@@H](C)CC)C(C)C)C(C)C)C(C)C)C(C)C [F3, Caerin 1.9] (H-GLFGVLGSIAKHVLPHVVPVIAEKL-NH2)
accumulation in plasma (SD rats, 10 mg/kg): no F3 accumulation | accumulation in plasma (SD rats, listed as Caerin 1.9, 10 mg/kg): no accumulation | Tmax (SD rats, s.c., over single 1.0 mg/kg and repeated 10.0 mg/kg groups): between half an hour and one hour | AUC_%Extrap_obs (female SD rats, s.c. 10.0 mg/kg daily x14 d, 1st dose, plasma, LC-MS/MS): 1.48% | T max (female SD rats, s.c. 10.0 mg/kg daily x14 d, 1st dose, plasma, LC-MS/MS, 10 mg/kg): 1 h and 1.00 h | AUC_%Extrap_obs [1]: 0.658% | T max [1]: 1.00 h | AUC(0-inf) (female, Sprague Dawley, rat, plasma, sc, 10 mg/kg, female SD rats, s.c. 10.0 mg/kg daily x14 d, 14th dose, LC-MS/MS): 1110 ng·h/mL | AUC(0-inf) [2]: 751 ng·h/mL | AUC(0-t) [2]: 740 ng·h/mL | Cmax [2]: 256 ng/mL | half-life [2]: 1.33 h | CL/F (female, Sprague-Dawley, rat, plasma, sc, 10 mg/kg, female SD rats, s.c. 10.0 mg/kg daily x14 d, 1st dose, plasma, LC-MS/MS): 222 mL/min/kg | MRT (female, Sprague-Dawley, rat, plasma, sc, 10 mg/kg, female SD rats, s.c. 10.0 mg/kg daily x14 d, 1st dose, plasma, LC-MS/MS, read-out: MRTInf_obs (mean residence time)): 2.96 h | AUC(0-t) [3]: 1100 ng·h/mL | Cmax [3]: 496 ng/mL | half-life [3]: 1.03 h | CL/F (female, Sprague-Dawley, rat, plasma, sc, 10 mg/kg, female SD rats, s.c. 10.0 mg/kg daily x14 d, 14th dose, plasma, LC-MS/MS): 150 mL/min/kg | MRT at 14 days (female, Sprague-Dawley, rat, plasma, sc, 10 mg/kg, female SD rats, s.c. 10.0 mg/kg daily x14 d, 14th dose, plasma, LC-MS/MS, read-out: MRTInf_obs (mean residence time)): 1.91 h | AUC_%Extrap_obs (male SD rats, s.c. 10.0 mg/kg daily x14 d, 1st dose, plasma, LC-MS/MS): 0.807% | T max (male SD rats, s.c. 10.0 mg/kg daily x14 d, 1st dose, plasma, LC-MS/MS, 10 mg/kg): 1 h | AUC_%Extrap_obs (male SD rats, s.c. 10.0 mg/kg daily x14 d, 14th dose, plasma, LC-MS/MS): 0.365% | AUC(0-inf) [4]: 1910 ng·h/mL | AUC(0-t) [4]: 1890 ng·h/mL | Cmax [4]: 591 ng/mL | half-life [4]: 4.58 h | CL/F (male, Sprague-Dawley, rat, plasma, sc, 10 mg/kg, male SD rats, s.c. 10.0 mg/kg daily x14 d, 1st dose, plasma, LC-MS/MS): 87.5 mL/min/kg | Tmax (male, Sprague-Dawley, rat, plasma, sc, 10 mg/kg, male SD rats, s.c. 10.0 mg/kg daily x14 d, 1st dose, plasma, LC-MS/MS, read-out: T max): 1 h | AUC(0-inf) [5]: 1270 ng·h/mL | AUC(0-t) [5]: 1270 ng·h/mL | Cmax [5]: 527 ng/mL | half-life [5]: 0.894 h | CL/F (male, Sprague-Dawley, rat, plasma, sc, 10 mg/kg, male SD rats, s.c. 10.0 mg/kg daily x14 d, 14th dose, plasma, LC-MS/MS): 131 mL/min/kg | MRT at 14 days (male, Sprague-Dawley, rat, plasma, sc, 10 mg/kg, male SD rats, s.c. 10.0 mg/kg daily x14 d, 14th dose, plasma, LC-MS/MS, read-out: MRTInf_obs (mean residence time)): 2.06 h | Tmax (male, Sprague-Dawley, rat, plasma, sc, 10 mg/kg, male SD rats, s.c. 10.0 mg/kg daily x14 d, 14th dose, plasma, LC-MS/MS, read-out: T max): 0.5 h
